According to article PMC5516711 (Evidence-based Complementary and Alternative Medicine : eCAM, 2017):
Read-outs that look alike come from different tables or passages of the source.

Assays:
[1] = Pharmacokinetic study in rats after oral administration of Naoxintong capsule (NXTC), plasma levels by HPLC-MS/MS; settings: for Detection in rat plasma after oral administration of NXTC: doses of 0.5 g kg^−1 and 1.5 g kg^−1, at the present LLOQ level; for Tmax / AUC(0-inf) / AUC(0-t) / Cmax / MRT inf / MRT last / half-life: male, Sprague-Dawley, rat, plasma, po
Protocol: (§1) The LC-MS/MS analysis was carried out on an Agilent 1200 system (Agilent Corporation, USA) coupled with an API 3200 triple quadrupole mass spectrometer with a Turbo Ion Spray Ionization (ESI) source (Concord, Ontario, Canada). The Agilent 1200 system consisted of a vacuum degasser (G1322A), a binary pump (G1312A), and a Hip-ALS autosampler (G13678). Chromatographic separation was performed on an Eclipse plus C18 column (4.6 × 100 mm, 1.8 μm) with a security guard C18 column (2.1 mm × 12.5 mm, 5 μm) (Agilent, USA). The mobile phases consisted of acetonitrile (A) and formic acid aqueous solution (B). The linear gradient was 30% A-30% A (0–10 min); 30%–80% A (10–15 min); 80%–95% A (15–20 min); 95%-95% A (20–30 min). Reequilibration time after gradient elution was 5 min. The column temperature was maintained at 25°C and the flow rate was set at 0.300 mL min^−1. ESI-MS spectra were acquired in both negative and positive ion multiple reaction monitoring (MRM) mode. Data collection and peak calculations were performed by Analyst 1.4.2 software (AB MDS Sciex).
(§2) The ISs solution (10 μL) and formic acid (10 μL) were added to plasma samples (100 μL). Acetonitrile (370 μL) was used to precipitate protein. The mixed solution was swirled for 1 min and then centrifuged at 14000 rpm for 10 min. The supernatant fluid was collected and then evaporated to dryness with a stream of N2 gas in a 40°C water bath. The residue was reconstituted in 100 μL methanol, swirled for 1 min. The sample was centrifuged at 14000 rpm for 10 min. 10 μL of the supernatant was injected into the LC-MS/MS system for analysis.
(§3) Rats were fasted for 12 h with free access to water before the experiment. NXTC extracts were orally administrated to ten rats at single time dose (0.5 g kg^−1) and to ten rats at triple doses (1.5 g kg^−1). The blood samples were collected at 5, 10, 15, 30, 45, 60, 90, 120, 240, 480, 720, and 1440 min after oral administration. Blood samples (200 μL) were collected from the vein of the eye sockets into heparinized tubes after the rats were anesthetized with ethyl ether. The samples were immediately centrifuged at 7,000 rpm, 10°C for 10 min. Then the plasma samples obtained were stored at −20°C.
(§4) Some pharmacokinetic parameters were calculated by DAS1.0 software (Drug and Statistics 1.0, Medical College of Wannan, China). An appropriate model was employed to calculate the following parameters: area under the plasma concentration versus time curve from zero to last sampling time (AUC0→24 h) and infinity (AUC0→∞) and mean retention time from zero to last sampling time (MRT0→24 h). […] All data were shown as average value ± standard deviation.

[2] = in vivo
Protocol: as §1, §2, §3, §4

[3] = rat, in vivo, po; cited from earlier work

## CC(C)(O)CC[C@@H](O)[C@](C)(O)[C@H]1CC[C@@]2(O)C3=CC(=O)[C@@H]4C[C@@H](O)[C@@H](O)C[C@]4(C)[C@H]3CC[C@]12C [Ecdysterone, ecdysterone]
[1]
  Detection in rat plasma after oral administration of NXTC: not detected

## OC[C@H]1O[C@@H](Oc2cc(O)cc(/C=C/c3ccc(O[C@@H]4O[C@H](CO)[C@@H](O)[C@H](O)[C@H]4O)cc3O)c2)[C@H](O)[C@@H](O)[C@@H]1O [Mulberroside A, mulberroside A]
[1]
  Detection in rat plasma after oral administration of NXTC: not detected

## O=C(O)/C=C/c1ccc(O)c(O)c1 [Caffeic acid, caffeic acid]
[1]
  Tmax: < 1 h
[1]; 0.5 g/kg
  AUC(0-inf): 19.6 ± 21.1 ng·h/mL
  AUC(0-t): 11.7 ± 9.6 ng·h/mL
  Cmax: 9.8 ± 4.4 ng/mL
  MRT inf: 4.02 ± 4.96 h
  MRT last: 1.33 ± 1.19 h
  Tmax: 0.18 ± 0.03 h
  half-life: 0.83 ± 0.33 h
[1]; 1.5 g/kg
  AUC(0-inf): 28.5 ± 20 ng·h/mL
  AUC(0-t): 26 ± 18.6 ng·h/mL
  Cmax: 15.2 ± 3.08 ng/mL
  MRT inf: 2.72 ± 1.82 h
  MRT last: 2.03 ± 1.43 h
  Tmax: 0.2 ± 0.04 h
  half-life: 0.7 ± 0.35 h

## C[C@H]1COC2=C1C(=O)C(=O)c1c2ccc2c1CCCC2(C)C [Cryptotanshinone, cryptotanshinone]
[1]
  Detection in rat plasma after oral administration of NXTC: could be detected
[1]; 0.5 g/kg
  AUC(0-inf): 4.72 ± 5.99 ng·h/mL
  AUC(0-t): 1.49 ± 0.76 ng·h/mL
  Cmax: 0.61 ± 0.23 ng/mL
  MRT inf: 20.7 ± 27.7 h
  MRT last: 3.06 ± 1.47 h
  Tmax: 0.51 ± 0.4 h
  half-life: 2.93 ± 3.89 h
[1]; 1.5 g kg^−1
  half-life: 17.8 ± 17.1 h
[1]; 1.5 g/kg
  AUC(0-inf): 55.2 ± 59.8 ng·h/mL
  AUC(0-t): 24.8 ± 27.9 ng·h/mL
  Cmax: 2.78 ± 2.52 ng/mL
  MRT inf: 19 ± 17.5 h
  MRT last: 7.37 ± 3.95 h
  Tmax: 0.6 ± 0.2 h
  half-life: 17.8 ± 17.1 h

## salvianolic acid B
[1]
  Detection in rat plasma after oral administration of NXTC: not detected

## COc1cc(/C=C/C(=O)O)ccc1O [Ferulic acid, ferulic acid]
[2]
  Detection in rat plasma after oral administration of NXTC: could be detected
[2]; rat, po
  Cmax: 12.07 ± 4.61 ng/mL
  Tmax: less than 1 h
[2]; rat, po, 0.5 g/kg
  AUC(0–24 h): 3.20 ± 1.55 ng/mL∗h
  AUC(0–∞): 4.19 ± 2.30 ng/mL∗h
  C max: 10.93 ± 4.67 ng/mL
  MRT(0–24 h): 0.28 ± 0.10 h
  MRT(0–∞): 0.48 ± 0.33 h
  T 1/2: 0.20 ± 0.19 h
  T max: 0.17 ± 0.00 h
[2]; rat, po, 1.5 g/kg
  AUC(0–24 h): 8.33 ± 3.87 ng/mL∗h
  AUC(0–∞): 14.4 ± 12.8 ng/mL∗h
  C max: 12.07 ± 4.61 ng/mL
  MRT(0–24 h): 0.81 ± 0.38 h
  MRT(0–∞): 3.80 ± 6.11 h
  T 1/2: 0.42 ± 0.15 h
  T max: 0.19 ± 0.04 h
[3]
  mean Tmax: 1.8 min

## CC(C)(O)[C@@H]1CC[C@](C)([C@H]2[C@@H](O)C[C@@]3(C)[C@@H]4C[C@H](O[C@@H]5O[C@H](CO)[C@@H](O)[C@H](O)[C@H]5O)[C@H]5C(C)(C)[C@@H](O[C@@H]6OC[C@@H](O)[C@H](O)[C@H]6O)CC[C@@]56C[C@@]46CC[C@]23C)O1 [Astragaloside IV, astragaloside IV]
[1]
  Detection in rat plasma after oral administration of NXTC: not detected

## N#C[C@H](O[C@@H]1O[C@H](CO[C@@H]2O[C@H](CO)[C@@H](O)[C@H](O)[C@H]2O)[C@@H](O)[C@H](O)[C@H]1O)c1ccccc1 [Amygdalin, amygdalin]
[1]
  Detection in rat plasma after oral administration of NXTC: not detected

## COc1ccc(-c2coc3cc(O)ccc3c2=O)cc1 [Formononetin, formononetin]
[1]
  Detection in rat plasma after oral administration of NXTC: could be detected
  AUC(0-t): < 1 ng·h/mL
  Cmax: < 1 ng/mL
  Tmax: < 1 h
[1]; 0.5 g/kg
  AUC(0-inf): 0.15 ± 0.09 ng·h/mL
  AUC(0-t): 0.08 ± 0.05 ng·h/mL
  Cmax: 0.11 ± 0.05 ng/mL
  MRT inf: 1.67 ± 1.53 h
  MRT last: 0.56 ± 0.23 h
  Tmax: 0.49 ± 0.33 h
  half-life: 2.96 ± 5.61 h
[1]; 1.5 g/kg
  AUC(0-inf): 3.06 ± 3.07 ng·h/mL
  AUC(0-t): 1.47 ± 1.82 ng·h/mL
  Cmax: 0.37 ± 0.32 ng/mL
  MRT inf: 25.9 ± 31.8 h
  MRT last: 5.16 ± 3.68 h
  Tmax: 0.38 ± 0.25 h
  half-life: 1.42 ± 0.69 h

## C[C@@]12C[C@@]3(O)O[C@@H](O1)[C@]1(COC(=O)c4ccccc4)[C@H]3C[C@@]12O[C@@H]1O[C@H](CO)[C@@H](O)[C@H](O)[C@H]1O [Paeoniflorin, paeoniflorin]
[1]
  Detection in rat plasma after oral administration of NXTC: not detected

## Cc1coc2c1C(=O)C(=O)c1c-2ccc2c1CCCC2(C)C [Tanshinone IIA, tanshinone IIA]
[1]
  Detection in rat plasma after oral administration of NXTC: could be detected
[1]; 0.5 g/kg
  AUC(0-inf): 27.7 ± 36.2 ng·h/mL
  AUC(0-t): 8.15 ± 4.85 ng·h/mL
  Cmax: 1.61 ± 1.11 ng/mL
  MRT inf: 26.8 ± 31.5 h
  MRT last: 5.48 ± 1.66 h
  Tmax: 0.54 ± 0.29 h
  half-life: 11.4 ± 15.8 h
[1]; 1.5 g/kg
  AUC(0-inf): 83 ± 81 ng·h/mL
  AUC(0-t): 35.4 ± 42.2 ng·h/mL
  Cmax: 4.18 ± 3.34 ng/mL
  MRT inf: 27.2 ± 20.6 h
  MRT last: 5.75 ± 3.36 h
  Tmax: 3.17 ± 3.75 h
  half-life: 13.2 ± 10.4 h
